The structures appear in SMILES notation.

In experiment [1] the test system is delayed hypersensitivity. Description: Test 1: Test of Reinforcement of Delayed Hypersensitivity. The conditions noted are these: mouse, 50 mg/Kg oral, 24 hours after challenge; * P<0.05, ** P<0.01; control 29.6 ± 1.9. The class given is in vivo, ICR male mice. An excerpt: Various test systems using animals have been proposed for determining the immunopotensiative action. Results of the test of reinforcement of the delayed hypersensitivity, which is a typical test among these tests, will now be described.
This system was used for the test of reinforcement of the delayed hypersensitivity.
One groups of eight ICR male mice, each having a body weight of about 30 g, were used for the test.
Sensitization was effected by coating a 7% solution of picryl chloride in a 4/1 mixture of olive oil and acetone on the shaved abdomen of the mouse.
Simultaneously with sensitization, a solution or suspension of the compound of the present invention in a 0.2% solution of carboxymethyl cellulose in a physiological saline solution was orally administered to the mouse at a dose of 50 mg per Kg of the body weight. To the control group, a 0.2% carboxymethyl cellulose solution in a physiological saline solution was similarly administered.
The delayed hypersensitivity was challenged 7 days after sensitization by gripping the ear of the mouse by a forceps wrapped with a felt impregnated with a 1% solution of picryl chloride in olive oil and coating the ear with the solution. The thickness of the ear was measured before challenging and 24 hours after challenging and the ratio of increase of the thickness (average value of both the ears in eight mice±standard deviation) was obtained as shown in Table 1.
For comparison, the test was similarly carried out by using Levamisol hydrochloride, and the obtained results are shown in Table 1. F.t tests were carried out. The group in which the test result was significant at a level of P<0.05 was marked by *, and the group in which the test result was significant at a level of P<0.01 ws marked by **.

The subject of experiment [2] is adjuvant arthritis. Description: Test 2: Adjuvant Arthritis Test. It is filed as in vivo, SD male rats. The following applies: rat, 5 mg/Kg subcutaneous, 9 times, left hind leg, * P<0.05, ** P<0.01.
Experiment [3] deals with EL-4 leukemic cells. Nature of the experiment: Test 3: In-Vitro Test of Inhibition of Growth of Cancer Cell by Macrophage. It is filed as cell-based. The following applies: 8 mg/Kg intraperitoneal to mice, macrophages collected after 4 days, with EL-4 cells; control 80.2. How it is done:
The results of the test of the action of the effective ingredient of the present invention on the macrophage will now be described with reference to the following Test 3. More specifically, the separated macrophage and EL-4 leukemic cell were mixed and cultured, and ^3 H-thymidine was added to a culture medium and the quantity of ^3 H-thymidine incorporated into the EL-4 cell was determined to examine the activity of the macrophage. When the macrophage is activated by administration of the effective ingredient of the present invention, inhibition of the growth of EL-4 cell, that is, phagocytosis of the cancer cell by the macrophage, is observed. Accordingly, if the take-in amount of ^3 H-thymidine is measured and this amount is reduced, it is confirmed that the macrophage has been activated. […] The dose was 8 mg per Kg of the body weight. To the control group, a physiological saline solution was similarly administered. After passage of 4 days, exuded abdominal cells were collected and deposited on a plastic Petri dish to collect microphages. Then, 1×10^6 of so obtained macrophages and 1×10^5 of EL-4 leukemic cells of C57 BL/6J mouse were mixed with cultured in an RPM1 1640 culture medium to which 10% of bovine embryo serum was added (at 37° C. in the presence of 5% of CO2) for 24 hours. Then, 0.1μ Ci of ^3 H-thymidine was added and culturing was further conducted for 16 hours. Cells were collected on a filter paper from the culture medium and the amount of ^3 H-thymidine taken in was determined by a liquid scintillation counter. […] For comparison, the test was similarly carried out by using Levamisol hydrochloride. Results

In experiment [4] the test system is Sarcoma 180. Description: Test 4: Test of Antitumor Effect to Sarcoma 180 by Oral Administration. It is filed as in vivo, ICR female mice. The following applies: for N: number of living mice: 100 mg/Kg oral; for D: average diameter of tumor: 100 mg/Kg oral once a day, 10 days. As for the experimental part: To the control group, a physiological saline solution was similarly administered. The dose of the compound was 100 mg per Kg of the body weight. The diameter D (mm) of the tumor was measured, and the average value and the number N of the living mice were determined to obtain results shown in Table 4.

For experiment [5], the system named is Sarcoma 180. Nature of the experiment: Test 5: Test of Carcinostatic Effect to Sarcoma 180 by Subcutaneous Administration. The class given is in vivo, ICR female mice. The conditions noted are these: 20 mg/Kg subcutaneous. How it is done:
To the control group, a physiological saline solution was similarly administered. […] The diameter D (mm) of the tumor was measured, and the average value and the number N of the living mice were determined to obtain results shown in Table 4.

Regarding `CN1CCN(C(=O)N2CCCC2)CC1` [drawing 7], the “Ratio of Increase of Ear Thickness (average value ± Standard Variation)” value in experiment [1] amounted to 36.7 ± 2.5%.
Still for that read-out and setting: the figure for `CN1CCN(C(=O)N2CCCCC2)CC1` [drawing 8] is 43.5 ± 2.8%; for `O=C(N1CCCCC1)N1CCN(c2ccccc2)CC1` [drawing 9] it is 45.0 ± 4.6%.
Turning to `CN1CCN(C(=O)N2CCCC2)CC1` [drawing 10], the “Swelling Ratio (average value ± standard variation)” value in experiment [2] (15 days, control 84.4 ± 9.0) came to 54.6 ± 11.3%; in experiment [2] (18 days, control 103.2 ± 9.7) it was 61.7 ± 13.0%; in experiment [2] (21 days, control 107.5 ± 13.3), 73.3 ± 14.6%.
`CN1CCN(C(=O)N2CCCCC2)CC1` [drawing 11]: the “Swelling Ratio (average value ± standard variation)” value in experiment [2] (15 days, control 84.4 ± 9.0) amounted to 49.4 ± 10.3%; in experiment [2] (18 days, control 103.2 ± 9.7) it was 62.0 ± 12.5%; in experiment [2] (21 days, control 107.5 ± 13.3), 68.1 ± 14.0%.
Taken in the same sequence, the figures for `O=C(N1CCCCC1)N1CCN(c2ccccc2)CC1` [drawing 12] were 39.5 ± 11.7%, 56.1 ± 10.8% and 74.4 ± 13.9%.
`CN1CCN(C(=O)N2CCCC2)CC1` [drawing 13]: the “Take-In Ratio of 3H-thymidine (average value)” value in experiment [3] is reported as 25.7%.
As for `CN1CCN(C(=O)N2CCCCC2)CC1` [drawing 14], in experiment [3], the “Take-In Ratio of 3H-thymidine (average value)” value is on record as 22.6%.
The same measure, in the same setting: for `O=C(N1CCCCC1)N1CCN(c2ccccc2)CC1` [drawing 15] the value was 21.9%.
For `CN1CCN(C(=O)N2CCCC2)CC1` [drawing 16], the “N: number of living mice” value is recorded as 6 in experiment [4] (0 weeks, control 6); 6 in experiment [4] (2 weeks, control 6); 6 in experiment [4] (4 weeks, control 6); 6 in experiment [4] (6 weeks, control 6); 6 in experiment [4] (8 weeks, control 5); 6 in experiment [4] (10 weeks, control 1). Also, the “D: average diameter of tumor” value was found to be 7.7 mm in experiment [4] (2 weeks, control 10.6); 6.3 mm in experiment [4] (4 weeks, control 15.2); 5.5 mm in experiment [4] (6 weeks, control 22.4); 4.7 mm in experiment [4] (8 weeks, control 31.5); 0 mm in experiment [4] (10 weeks, control 37.6).
For `CN1CCN(C(=O)N2CCCCC2)CC1` [drawing 17], the “N: number of living mice” value is 6 in experiment [4] (0 weeks, control 6); 6 in experiment [4] (2 weeks, control 6); 6 in experiment [4] (4 weeks, control 6); 6 in experiment [4] (6 weeks, control 6); 6 in experiment [4] (8 weeks, control 5); 6 in experiment [4] (10 weeks, control 1). Further, the “D: average diameter of tumor” value in experiment [4] (2 weeks, control 10.6) is on record as 6.0 mm; in experiment [4] (4 weeks, control 15.2) it was 4.7 mm; in experiment [4] (6 weeks, control 22.4) it was 4.8 mm; in experiment [4] (8 weeks, control 31.5), 3.3 mm; in experiment [4] (10 weeks, control 37.6), 0 mm.
Consider `O=C(N1CCCCC1)N1CCN(c2ccccc2)CC1` [drawing 18], for which the “N: number of living mice” value was found to be 6 in experiment [4] (0 weeks, control 6); 6 in experiment [4] (2 weeks, control 6); 6 in experiment [4] (4 weeks, control 6); 6 in experiment [4] (6 weeks, control 6); 6 in experiment [4] (8 weeks, control 5); 6 in experiment [4] (10 weeks, control 1). The “D: average diameter of tumor” value in experiment [4] (2 weeks, control 10.6) was determined as 6.2 mm; in experiment [4] (4 weeks, control 15.2), 3.8 mm; in experiment [4] (6 weeks, control 22.4), 4.4 mm; in experiment [4] (8 weeks, control 31.5), 5.3 mm; in experiment [4] (10 weeks, control 37.6) it was 0 mm.
Take `CN1CCN(C(=O)N2CCCC2)CC1` [drawing 19]: the “N: number of living mice” value turned out to be 6 in experiment [5] (0 weeks, control 6); 6 in experiment [5] (2 weeks, control 6); 6 in experiment [5] (4 weeks, control 6); 6 in experiment [5] (6 weeks, control 6); 6 in experiment [5] (8 weeks, control 4); 5 in experiment [5] (10 weeks, control 1). In addition, the “D: average diameter of tumor” value was 2.2 mm in experiment [5] (2 weeks, control 10.8); 3.6 mm in experiment [5] (4 weeks, control 16.6); 6.1 mm in experiment [5] (6 weeks, control 20.3); 1.2 mm in experiment [5] (8 weeks, control 31.2); 0 mm in experiment [5] (10 weeks, control 40.5).
Regarding `CN1CCN(C(=O)N2CCCCC2)CC1` [drawing 20], the “N: number of living mice” value in experiment [5] (0 weeks, control 6) is on record as 6; in experiment [5] (2 weeks, control 6) it was 6; in experiment [5] (4 weeks, control 6) it was 6; in experiment [5] (6 weeks, control 6), 6; in experiment [5] (8 weeks, control 4), 6; in experiment [5] (10 weeks, control 1), 6. The “D: average diameter of tumor” value is listed as 1.6 mm in experiment [5] (2 weeks, control 10.8); 3.7 mm in experiment [5] (4 weeks, control 16.6); 5.7 mm in experiment [5] (6 weeks, control 20.3); 0.8 mm in experiment [5] (8 weeks, control 31.2); 0 mm in experiment [5] (10 weeks, control 40.5).
Take `O=C(N1CCCCC1)N1CCN(c2ccccc2)CC1` [drawing 21]: the “N: number of living mice” value in experiment [5] (0 weeks, control 6) was determined as 6; in experiment [5] (2 weeks, control 6), 6; in experiment [5] (4 weeks, control 6) it was 6; in experiment [5] (6 weeks, control 6), 6; in experiment [5] (8 weeks, control 4) it was 6; in experiment [5] (10 weeks, control 1) it was 6. Further, the “D: average diameter of tumor” value in experiment [5] (2 weeks, control 10.8) was 2.4 mm; in experiment [5] (4 weeks, control 16.6) it was 3.9 mm; in experiment [5] (6 weeks, control 20.3), 5.2 mm; in experiment [5] (8 weeks, control 31.2), 0.2 mm; in experiment [5] (10 weeks, control 40.5), 0 mm.
